Results as given in the supplement of paper PMC9386025.

Tests used:
Experiment in all cases: drug sensitivity score (DSS) (DSS (dimensionless)); higher = more sensitive (stronger drug response)
FIMM-PDC1 = patient-derived ovarian cancer cells; conditions: genetic perturbation: none (patient-derived cell culture)
Outline: (§1)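 Cells, either patient-derived cultures or ovarian cancer cell lines given 100 ng/ml doxycycline for no less than three days to induce shRNA, went into 384-well plates at 1 000 – 1 500 per well over drugs pre-plated in five concentrations across a 10,000-fold range. The plates were held for three days at 37 °C with 5.0 % CO2. Cell viability was then taken from CellTiter-Glo luminescence on a PHERAstar FS. For each drug, a drug sensitivity score from its dose-response curve was obtained by a method described earlier.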

FIMM-PDC3 = patient-derived ovarian cancer cells; conditions: genetic perturbation: none (patient-derived cell culture)
Outline: as §1

FIMM-PDC4 = patient-derived ovarian cancer cells; conditions: genetic perturbation: none (patient-derived cell culture)
Outline: as §1

FIMM-PDC5 = patient-derived ovarian cancer cells; conditions: genetic perturbation: none (patient-derived cell culture)
Outline: as §1

FIMM-PDC6 = patient-derived ovarian cancer cells; conditions: genetic perturbation: none (patient-derived cell culture)
Outline: as §1

FIMM-PDC7 = patient-derived ovarian cancer cells; conditions: genetic perturbation: none (patient-derived cell culture)
Outline: as §1

JHOS2 = test system: JHOS2
Outline: as §1

Kuramochi = test system: Kuramochi
Outline: as §1

OVSAHO = test system: OVSAHO
Outline: as §1

[1] = genetic perturbation: DOX-induced PTK7 shRNA knockdown
[2] = genetic perturbation: DOX-induced control shRNA

Row | SMILES | drug sensitivity score (FIMM-PDC1) | drug sensitivity score (FIMM-PDC3) | drug sensitivity score (FIMM-PDC4) | drug sensitivity score (FIMM-PDC5) | drug sensitivity score (FIMM-PDC6) | drug sensitivity score (FIMM-PDC7) | drug sensitivity score (JHOS2; [1]) | drug sensitivity score (JHOS2; [2]) | drug sensitivity score (Kuramochi; [1]) | drug sensitivity score (Kuramochi; [2]) | drug sensitivity score (OVSAHO; [1]) | drug sensitivity score (OVSAHO; [2])
1 | COc1c(OCCCN2CCOCC2)ccc2c1N=C(NC(=O)c1cnc(N)nc1)N1CCN=C21 [Copanlisib] | 7.3 | 6.2 | 12.4 | 17.3 | 10.2 | 11.1 | 4.4 | 5.8 | 6.95 | 4.6 | 7.8 | 10.5
2 | CC1(COc2ccc3c(c2)ncn3-c2ccc3cccc(N4CCC(N)CC4)c3n2)COC1 [Crenolanib] | 3.55 | 5.3 | 5 | 8.5 | 4 | 4.7 | 8.5 | 5.7 | 3.65 | 2.9 | 3.8 | 3.7
3 | COc1cc2ncnc(Nc3ccc(F)c(Cl)c3)c2cc1NC(=O)/C=C/CN1CCCCC1 [Dacomitinib] | 3.2 | 13.1 | 18.2 | 23.4 | 18 | 14 | < 0 | 2 | 2.45 | 1.6 | 4.8 | 2.4
4 | Cc1c2oc3c(C)ccc(C(=O)N[C@@H]4C(=O)N[C@H](C(C)C)C(=O)N5CCC[C@H]5C(=O)N(C)CC(=O)N(C)[C@@H](C(C)C)C(=O)O[C@@H]4C)c3nc-2c(C(=O)N[C@@H]2C(=O)N[C@H](C(C)C)C(=O)N3CCC[C@H]3C(=O)N(C)CC(=O)N(C)[C@@H](C(C)C)C(=O)O[C@@H]2C)c(N)c1=O [Dactinomycin] | 23.6 | 26.5 | 23.1 | 25.2 | 22.1 | 26 | 21.1 | 23.4 | 23.3 | 19.9 | 23.1 | 18
5 | Cn1c(=O)n(-c2ccc(C(C)(C)C#N)cc2)c2c3cc(-c4cnc5ccccc5c4)ccc3ncc21 [Dactolisib] | 10.1 | 11.1 | 17.2 | 21.6 | 19 | 17 | 10.3 | 14.1 | 11.7 | 11.9 | 11.8 | 13.8
6 | CO[C@@H](C(=O)N1Cc2[nH]nc(NC(=O)c3ccc(N4CCN(C)CC4)cc3)c2C1)c1ccccc1 [Danusertib] | 7.7 | 9.9 | 11.6 | 9.6 | 9.4 | 1.8 | 6.6 | 5.5 | 10.4 | 13 | 17.5 | 7.5
7 | Cc1nc(Nc2ncc(C(=O)Nc3c(C)cccc3Cl)s2)cc(N2CCN(CCO)CC2)n1 [Dasatinib] | 6.05 | 13.9 | 19 | 17.8 | 10.7 | 3.2 | 8.7 | 10.1 | 17.9 | 9.5 | 14.5 | 15
8 | COc1cccc2c1C(=O)c1c(O)c3c(c(O)c1C2=O)C[C@@](O)(C(C)=O)C[C@@H]3O[C@H]1C[C@H](N)[C@H](O)[C@H](C)O1 [Daunorubicin] | 4.65 | 7.8 | 8.4 | 10.7 | 7.4 | 9 | 4 | 5.6 | 4.2 | 4.6 | 8.3 | 4.4
